Measurements from publication PMC4031293 (Molecular pharmaceutics, 2014).
“Also recorded” adds a separate entry of the source. Structures can show the parent of a compound that is named as a salt. Where two headings read alike, the source gives them in different places.

What was measured:
[1] = pseudo steady-state blood CsA and plasma NFV concentrations in rats; type: in vivo, rat
P-gp [2] = target: P-gp (Rattus norvegicus, UniProt Q6PSM0); test: in vivo; details: Sprague Dawley; for Kp at 2 h: absence of CsA, 120 min; for Kp at 120 min: with maximum P-gp inhibition by CsA
P-gp [3] = details: cited from earlier work; for increase in brain distribution in mdr1a/b(−/−) vs. wild-type mice: 2, 3
P-gp at the rat BBB [4] = target: T1, P-gp at the rat BBB (Rattus norvegicus, UniProt Q6PSM0); details: from brain:plasma ratios 0.044 and 0.93
BCRP = details: cited from earlier work
[5] = cited from earlier work
P-gp at the human BBB [6] = details: for predicted increase in NFV human brain:plasma concentration ratio: prediction based on the rat study alone
[7] = system: intracerebral human glioblastoma; details: co-administration with paclitaxel compared to paclitaxel alone; cited from earlier work
P-gp at the human BBB [8] = details: tariquidar 6 mg/kg; cited from earlier work
P-gp [9] = details: P-gp chemically inhibited, mouse or rat; 4; 5; cited from earlier work
P-gp at the rat BBB [10] = target: T1, P-gp at the rat BBB; details: 5.6 µM CsA blood concentration; 18; cited from earlier work

Chain of P-gp (Rattus norvegicus, UniProt Q6PSM0) (Q6PSM0 1-1272): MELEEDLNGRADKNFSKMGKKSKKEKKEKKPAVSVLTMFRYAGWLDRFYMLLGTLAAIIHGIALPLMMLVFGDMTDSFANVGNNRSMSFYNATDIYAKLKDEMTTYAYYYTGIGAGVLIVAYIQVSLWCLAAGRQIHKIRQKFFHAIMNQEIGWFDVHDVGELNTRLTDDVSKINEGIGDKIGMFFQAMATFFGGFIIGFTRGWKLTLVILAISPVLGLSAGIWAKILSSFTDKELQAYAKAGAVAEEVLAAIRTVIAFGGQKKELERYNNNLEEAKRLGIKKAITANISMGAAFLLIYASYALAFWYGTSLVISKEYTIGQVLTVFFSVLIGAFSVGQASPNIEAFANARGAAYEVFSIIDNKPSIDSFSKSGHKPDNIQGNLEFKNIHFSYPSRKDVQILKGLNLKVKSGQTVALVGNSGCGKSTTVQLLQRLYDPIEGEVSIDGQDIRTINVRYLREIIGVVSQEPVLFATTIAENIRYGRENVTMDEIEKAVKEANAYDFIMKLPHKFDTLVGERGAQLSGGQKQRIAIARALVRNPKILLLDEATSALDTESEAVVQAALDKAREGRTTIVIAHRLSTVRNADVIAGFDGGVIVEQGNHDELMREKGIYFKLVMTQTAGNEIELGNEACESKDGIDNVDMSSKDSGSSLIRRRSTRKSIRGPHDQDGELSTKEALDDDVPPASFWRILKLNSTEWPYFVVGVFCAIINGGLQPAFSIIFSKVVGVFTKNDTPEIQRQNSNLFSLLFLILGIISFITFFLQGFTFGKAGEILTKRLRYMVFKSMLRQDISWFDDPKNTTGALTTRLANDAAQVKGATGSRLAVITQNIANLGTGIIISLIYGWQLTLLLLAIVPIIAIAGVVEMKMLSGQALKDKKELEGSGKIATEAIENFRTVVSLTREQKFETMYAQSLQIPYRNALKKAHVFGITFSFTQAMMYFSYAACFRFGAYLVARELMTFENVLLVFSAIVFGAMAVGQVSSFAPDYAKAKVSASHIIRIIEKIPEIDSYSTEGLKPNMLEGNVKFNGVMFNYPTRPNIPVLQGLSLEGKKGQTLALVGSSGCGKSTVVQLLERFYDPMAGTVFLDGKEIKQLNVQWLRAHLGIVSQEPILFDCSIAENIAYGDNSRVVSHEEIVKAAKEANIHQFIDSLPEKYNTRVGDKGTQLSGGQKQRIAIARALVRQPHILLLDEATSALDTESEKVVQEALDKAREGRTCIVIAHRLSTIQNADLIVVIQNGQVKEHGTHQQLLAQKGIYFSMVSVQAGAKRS
T1 sequence (Q6PSM0 1-1272): as above

## Cc1c(O)cccc1C(=O)N[C@@H](CSc1ccccc1)[C@H](O)CN1C[C@H]2CCCC[C@H]2C[C@H]1C(=O)NC(C)(C)C [NFV, Nelfinavir mesylate]
[1]; at 120 min, Student's t-test
  effect of CsA on pseudo steady-state plasma NFV concentration: did not significantly affect; also recorded: not significantly affected
[1]; i.v. bolus plus constant rate i.v. infusion
  time to pseudo steady-state NFV plasma concentration: ≤ 30 min
P-gp [2]; NFV brain:plasma concentration ratio corrected for vascular contamination
  Kp at 2 h: 0.014 ± 0.01
P-gp [2]; NFV brain:plasma concentration ratio, not corrected for vascular contamination
  Kp at 2 h: 0.044 ± 0.01
P-gp [2]; NFV brain:plasma ratio after vascular-content correction
  Kp at 120 min: 0.9 ± 0.16
P-gp [2]; NFV brain:plasma ratio, uncorrected for vascular content
  Kp at 120 min: 0.93 ± 0.16
P-gp [3]
  increase in brain distribution in mdr1a/b(−/−) vs. wild-type mice: 3400%
P-gp [3]; 5
  increase in brain:blood concentration ratio in mdr1a/b(−/−) vs. wild-type mice: 3400%
P-gp at the rat BBB [4]
  ft(P-gp), not corrected for vascular content: 0.95
BCRP
  substrate of BCRP: not a substrate
[5]
  blood: plasma ratio: 0.877
P-gp at the human BBB [6]; CsA blood 1.5 µM
  predicted increase in NFV human brain:plasma concentration ratio: 236%
P-gp at the human BBB [6]; CsA blood 1.5 µM, rat data and in vitro LLCPK1-MDR1 data
  predicted increase in the NFV brain:plasma concentration ratio / distribution into the human brain: 241%
P-gp at the human BBB [6]; CsA blood 2.8 µM, in vitro data scaled using rat in vivo data
  predicted increase in the NFV brain:plasma concentration ratio at the human BBB: 555%
P-gp at the human BBB [6]; CsA blood 2.8 µM
  predicted increase in NFV human brain:plasma concentration ratio: 589%

## C/C=C/C[C@@H](C)C(=O)[C@H]1C(=O)N[C@@H](C(C)C)C(=O)N(C)CC(=O)N(C)[C@@H](CC(C)C)C(=O)N[C@@H](C(C)C)C(=O)N(C)[C@@H](CC(C)C)C(=O)N[C@@H](C)C(=O)N[C@H](C)C(=O)N(C)[C@@H](CC(C)C)C(=O)N(C)[C@@H](CC(C)C)C(=O)N(C)[C@@H](C(C)C)C(=O)N1C [PSC833]
[7]
  brain tumor volume: significant reduction in the brain tumor volume

## CNC(=O)C(CCN1CCC(O)(c2ccc(Cl)cc2)CC1)(c1ccccc1)c1ccccc1 [dLop, N-desmethyl-loperamide]
P-gp at the human BBB [8]
  increase in distribution into the human brain: ≤ 300%

## CN(C)C(=O)C(CCN1CCC(O)(c2ccc(Cl)cc2)CC1)(c1ccccc1)c1ccccc1 [loperamide]
P-gp [3]
  increase in brain distribution in mdr1a/b(−/−) vs. wild-type mice: 1200%
P-gp [9]
  increase in brain distribution in the presence vs. absence of the P-gp inhibitor: 1500%
P-gp at the rat BBB [10]
  increase in total loperamide-radioactivity uptake into the brain of rats: 588%
